{"source": "paper PMC9203742", "about": "(Nature Communications, 2022)", "key": {"[1]": {"tested_on": "MLIs infected with AAV-hSyn-mGlu1^CBC", "test": "sAP-mediated currents (firing rate) of MLIs infected with AAV-hSyn-mGlu1^CBC", "type": "cell-based, mouse", "method": "(§1) To monitor the excitability of MLIs, sAP-mediated current responses were extracellulary recorded by a loose cell-attached voltage-clamp at a holding potential of 0 mV. Glass electrodes used for cell-attached recordings had resistances of 3–5 MΩ when filled with ACSF. The current recordings from AAV-infected cells were performed 1−2 weeks after infection. The EPSCs and sAP-mediated currents were recorded using an Axopatch 200B amplifier (Molecular Devices), and the pClamp system (version 9.2; Molecular Devices) was used for data acquisition and analysis. The signals were filtered at 1 kHz and digitized at 4 kHz for the evoked EPSCs and 10 kHz for the sAP-mediated currents.\n(§2) Injection of viral solutions was performed as described previously with slight modifications. Briefly, under deep anesthesia, with an intraperitoneal injection of medetomidine (0.3 mg/kg), midazolam (4.0 mg/kg), and butorphanol (5.0 mg/kg), 4 µL of the solutions containing AAV mixture were directly injected into the vermis of cerebellar lobules V-VIII (200-300 µm in depth, 12 µL/h in rate) of WT mice (C57BL/6J, P20-P30) using glass pipette (30–40 µm in diameter) and microinjector (Nanoliter; World Precision Instruments). In all, 1−2 week after injection, the mice were used for each experiment."}, "[2]": {"tested_on": "Purkinje cells in cerebellar slices from mGlu1^CBC/CBC mice", "test": "chemLTD recording (PF-EPSC) in Purkinje cells of acute cerebellar slices, mGlu1^CBC/CBC mice", "type": "cell-based, mouse", "settings": "DHPG 50 μM for 10 min; t = 31−35 min", "method": "(§3) Sagittal cerebellar slices were cut with a microslicer (Linear slicer Pro7; DOSAKA EM) in cutting solution buffer and then incubated in ACSF gassed with 5% CO2 and 95% O2 at room temperature.\n(§4) Whole-cell patch-clamp recordings were made from visually identified Purkinje cells using a 60× water-immersion objective attached to an upright microscope (BX51WI, Olympus) at room temperature, as described previously. […] Picrotoxin (100 µM; Sigma) was always added to the saline to block inhibitory synaptic transmission.\n(§5) To evoke EPSCs derived from CF (CF-EPSCs) and PF (PF-EPSCs) inputs onto Purkinje cells, square pulses were applied through a stimulating electrode placed on the granular layer and the molecular layer (50 µm away from the pial surface), respectively. The selective stimulation of CFs and PFs was confirmed by the paired-pulse depression (PPD) and paired-pulse facilitation (PPF) of EPSC amplitudes at a 50-ms interstimulus interval (ISI), respectively.\n(§6) For the LTD sessions, PF-EPSCs were recorded successively at a frequency of 0.1 Hz from Purkinje cells clamped at –80 mV. After a stable PF-EPSC amplitude had been observed for at least 5 min, a conjunctive stimulation that consisted of 30 single PF stimuli together with a 200 ms depolarizing pulse from a holding potential of –60 to +20 mV was applied for LTD induction.\n(§7) To chemically induce LTD (chemLTD), 50 µM (S)-3,5-dihydroxyphenylglycine (DHPG) or 1 µM Pd(sulfo-bpy) was applied for 10 min in a current-clamp mode. We often observed a transient decrease in PF-EPSC amplitude after the application of each drug probably because Purkinje cells under current-clamp conditions excite spontaneously to suppress presynaptic function through the retrograde signaling. Access resistances were monitored every 10 s by measuring the peak currents in response to 2 mV, 50-ms hyperpolarizing steps throughout the experiments; the measurements were discarded if the resistance changed by >20% of its original value. The normalized EPSC amplitude on the ordinate represents the EPSC amplitude for the average of six traces for 1 min divided by that of the average of six traces for 1 min immediately before the conjunctive stimulation or the drug application."}, "[3]": {"tested_on": "MLIs infected with AAV-hSyn-mGlu1^WT", "test": "sAP-mediated currents (firing rate) of MLIs infected with AAV-hSyn-mGlu1^WT", "type": "cell-based, mouse", "method": "as §1, §2"}, "[4]": {"tested_on": "Purkinje cells in cerebellar slices from mGlu1^+/+ mice", "test": "chemLTD recording (PF-EPSC) in Purkinje cells of acute cerebellar slices, mGlu1^+/+ mice", "type": "cell-based, mouse", "settings": "DHPG 50 μM for 10 min; t = 31−35 min", "method": "as §3, §4, §5, §6, §7"}, "[5]": {"tested_on": "MLIs surrounded by mGlu1(N264H)-expressing Purkinje cells (AAV-L7-mGlu1^CBC)", "test": "sAP-mediated currents (firing rate) of MLIs in slices infected with AAV-L7-mGlu1^CBC", "type": "cell-based, mouse", "settings": "AAV-L7-mGlu1CBC", "method": "as §1, §2"}, "mGlu1 P58H/N264H mutant": {"target": "T1, mGlu1 P58H/N264H mutant (Rattus norvegicus, UniProt P23385, N264H/P58H)", "T1 construct": "expressed in transfected cells; host or cells: HEK293", "T1 sequence (P23385 19-1199 P58H/N264H)": "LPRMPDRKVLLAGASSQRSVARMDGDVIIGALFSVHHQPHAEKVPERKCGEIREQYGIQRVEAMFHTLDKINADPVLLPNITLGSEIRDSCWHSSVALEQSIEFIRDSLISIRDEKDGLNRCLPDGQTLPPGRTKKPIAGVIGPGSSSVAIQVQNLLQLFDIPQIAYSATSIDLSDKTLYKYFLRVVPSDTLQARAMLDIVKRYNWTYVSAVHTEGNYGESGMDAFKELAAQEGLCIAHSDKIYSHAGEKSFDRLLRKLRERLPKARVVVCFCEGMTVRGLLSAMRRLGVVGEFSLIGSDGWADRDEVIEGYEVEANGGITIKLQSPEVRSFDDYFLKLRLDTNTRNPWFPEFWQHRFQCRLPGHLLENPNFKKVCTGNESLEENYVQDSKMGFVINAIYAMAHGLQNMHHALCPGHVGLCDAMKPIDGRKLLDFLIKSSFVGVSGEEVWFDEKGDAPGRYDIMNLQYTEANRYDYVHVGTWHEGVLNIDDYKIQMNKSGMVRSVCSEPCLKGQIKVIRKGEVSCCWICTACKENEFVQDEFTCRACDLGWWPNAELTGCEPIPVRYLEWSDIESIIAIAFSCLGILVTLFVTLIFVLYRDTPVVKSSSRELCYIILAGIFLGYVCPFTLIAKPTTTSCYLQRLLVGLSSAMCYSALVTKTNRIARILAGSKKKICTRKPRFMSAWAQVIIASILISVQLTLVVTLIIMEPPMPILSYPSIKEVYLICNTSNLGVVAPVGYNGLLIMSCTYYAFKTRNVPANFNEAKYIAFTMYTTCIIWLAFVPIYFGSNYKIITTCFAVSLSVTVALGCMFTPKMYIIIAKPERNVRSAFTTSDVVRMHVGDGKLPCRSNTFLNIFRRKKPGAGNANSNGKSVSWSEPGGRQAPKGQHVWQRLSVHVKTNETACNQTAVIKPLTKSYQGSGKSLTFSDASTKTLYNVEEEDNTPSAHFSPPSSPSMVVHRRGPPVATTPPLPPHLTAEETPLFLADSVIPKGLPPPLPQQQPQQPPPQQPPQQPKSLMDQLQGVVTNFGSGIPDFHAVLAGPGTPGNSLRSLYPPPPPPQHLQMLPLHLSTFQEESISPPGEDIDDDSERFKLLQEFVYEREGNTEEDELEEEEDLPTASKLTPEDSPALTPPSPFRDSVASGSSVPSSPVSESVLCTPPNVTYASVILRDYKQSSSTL", "test": "Fura-2 Ca2+ imaging in HEK293 cells expressing mGlu1 P58H/N264H", "type": "cell-based", "settings": "10 μM metal ion or metal complex"}, "mGlu1 E60H/N264H mutant": {"target": "T2, mGlu1 E60H/N264H mutant (Rattus norvegicus, UniProt P23385, E60H/N264H)", "T2 construct": "expressed in transfected cells; host or cells: HEK293", "T2 sequence (P23385 19-1199 E60H/N264H)": "as the sequence (P23385 19-1199 P58H/N264H) above, with H40P, E42H counted along it", "test": "Fura-2 Ca2+ imaging in HEK293 cells expressing mGlu1 E60H/N264H", "type": "cell-based", "settings": "10 μM metal ion or metal complex"}, "mGlu1 K61H/N264H mutant": {"target": "T3, mGlu1 K61H/N264H mutant (Rattus norvegicus, UniProt P23385, K61H/N264H)", "T3 construct": "expressed in transfected cells; host or cells: HEK293", "T3 sequence (P23385 19-1199 K61H/N264H)": "as the sequence (P23385 19-1199 P58H/N264H) above, with H40P, K43H counted along it", "test": "Fura-2 Ca2+ imaging in HEK293 cells expressing mGlu1 K61H/N264H", "type": "cell-based", "settings": "10 μM metal ion or metal complex"}, "[6]": {"settings": "Suppl Fig14d, AAV-hSyn-mGlu1CBC, mean of 15 cells"}, "[7]": {"settings": "Suppl Fig14d, AAV-hSyn-mGlu1WT, mean of 12 cells"}}, "note": "Where “and” joins values, the source holds several entries; their conditions need not be identical. Equal values may be shown once.", "data": [{"smiles": "N[C@H](C(=O)O)c1cc(O)cc(O)c1", "note": "[DHPG, (S)-3,5-dihydroxyphenylglycine]", "values": [{"measurement": "firing rate, DHPG (50uM), AVE(Hz)", "setting": "[1]; Suppl Fig14d, AAV-hSyn-mGlu1CBC, mean", "result": 11.5511, "unit": "Hz"}, {"measurement": "DHPG/CTL, AVE", "setting": "[1]; [6]", "result": 1.507}, {"measurement": "sAP events, DHPG (50uM), AVE", "setting": "[1]; [6]", "result": 346.533}, {"measurement": "Number of spontaneous action potentials (sAP)", "setting": "[1]; bath application of 50 µM DHPG", "result": "clearly increased"}, {"measurement": "chemLTD: normalized PF-EPSC amplitude", "setting": "[2]", "result": "56 ± 6", "unit": "%"}, {"measurement": "firing rate, DHPG (50uM), AVE(Hz)", "setting": "[3]; Suppl Fig14d, AAV-hSyn-mGlu1WT, mean", "result": 10.6722, "unit": "Hz"}, {"measurement": "DHPG/CTL, AVE", "setting": "[3]; [7]", "result": 1.47}, {"measurement": "sAP events, DHPG (50uM), AVE", "setting": "[3]; [7]", "result": 320.167}, {"measurement": "Number of spontaneous action potentials (sAP)", "setting": "[3]; bath application of 50 µM DHPG", "result": "clearly increased"}, {"measurement": "chemLTD: normalized PF-EPSC amplitude", "setting": "[4]", "result": "55 ± 7", "unit": "%"}]}, {"smiles": "[Pd+2]", "note": "[Pd^2+]", "values": [{"measurement": "firing rate with Pd, AVE(Hz)", "setting": "[5]; Pd", "result": 8.376, "unit": "Hz"}, {"measurement": "number of sAP-mediated currents with Pd, individual MLIs", "setting": "[5]; Pd", "result": "269 and 246 and 275 and 319 and 316 and 259 and 286 and 137 and 343 and 147 and 282 and 292 and 186"}, {"measurement": "number of sAP-mediated currents with Pd, AVE", "setting": "[5]; Pd, average of 15 MLIs", "result": 251.267}, {"measurement": "Pd/CTL, AVE", "setting": "[5]; average of 15 MLIs", "result": 1.024}, {"measurement": "Pd/CTL, individual MLIs", "setting": "[5]; ratio of sAP-mediated currents Pd vs CTL", "result": "0.9181 and 1.134 and 0.9516 and 1.085 and 1.01 and 1.008 and 1.018 and 1.161 and 1.003 and 1.105 and 0.9786 and 0.9216 and 1.028 and 0.9928 and 1.051"}, {"measurement": "firing rate with Pd, AVE(Hz)", "setting": "[1]; AAV-hSyn-mGlu1CBC, Pd", "result": 9.847, "unit": "Hz"}, {"measurement": "number of sAP-mediated currents with Pd, AVE", "setting": "[1]; AAV-hSyn-mGlu1CBC, Pd, average of 22 MLIs", "result": 295.409}, {"measurement": "Pd/CTL, AVE", "setting": "[1]; AAV-hSyn-mGlu1CBC, average of 22 MLIs", "result": 1.392}, {"measurement": "Pd/CTL, individual MLIs", "setting": "[1]; AAV-hSyn-mGlu1CBC, ratio of sAP-mediated currents Pd vs CTL", "result": "1.204 and 2.167 and 1.052 and 0.9801 and 1.6822 and 1.455 and 1.074 and 1.288 and 1.082 and 1.081 and 1.083 and 2.412 and 1.119 and 3.478 and 1.177 and 1.12 and 1.045 and 1.16 and 1.215 and 1.142 and 1.333 and 1.265"}, {"measurement": "Receptor activation ([Ca2+]i change, Δratio)", "setting": "mGlu1 P58H/N264H mutant", "result": "also activated"}, {"measurement": "firing rate with Pd, AVE(Hz)", "setting": "[3]; AAV-hSyn-mGlu1WT, Pd", "result": 8.021, "unit": "Hz"}, {"measurement": "number of sAP-mediated currents with Pd, individual MLIs", "setting": "[3]; AAV-hSyn-mGlu1WT, Pd", "result": "195 and 227 and 165 and 235 and 230 and 276 and 213 and 238 and 272 and 431 and 142 and 211 and 228 and 253 and 240 and 294"}, {"measurement": "number of sAP-mediated currents with Pd, AVE", "setting": "[3]; AAV-hSyn-mGlu1WT, Pd, average of 16 MLIs", "result": 240.625}, {"measurement": "Pd/CTL, AVE", "setting": "[3]; AAV-hSyn-mGlu1WT, average of 16 MLIs", "result": 1.02}, {"measurement": "Pd/CTL, individual MLIs", "setting": "[3]; AAV-hSyn-mGlu1WT, ratio of sAP-mediated currents Pd vs CTL", "result": "0.9466 and 0.8833 and 1.065 and 1.119 and 1.05 and 1.091 and 1.081 and 0.9958 and 0.8947 and 1.005 and 0.9161 and 0.8474 and 1.013 and 1.182 and 1.106 and 1.126"}, {"measurement": "Receptor activation ([Ca2+]i change, Δratio)", "setting": "mGlu1 E60H/N264H mutant", "result": "also activated"}, {"measurement": "Receptor activation ([Ca2+]i change, Δratio)", "setting": "mGlu1 K61H/N264H mutant", "result": "also activated"}]}]}
